# Results published in ChEMBL document CHEMBL4004882, “Synthesis of novel trifluoromethyl-substituted spiro-[chromeno[4,3-d]pyrimidine-5,1'-cycloalkanes], and evaluation of their analgesic effects in a mouse pain model” (Bioorg Med Chem Lett, 2017).
# The source made the active and inactive calls. The calls are words filed in the database; no cut-off is given here.
# Legend:
# Mus musculus [1] = assay: Antinociceptive activity in Swiss mouse assessed as inhibition of capsaicin-induced nociception at 100 mg/kg, po administered 1 hr followed by capsaicin challenge measured for 5 mins relative to vehicle-treated control; format: functional
# Mus musculus [2] = assay: Antinociceptive activity in Swiss mouse assessed as inhibition of CFA-induced mechanical allodynia at 100 mg/kg, po after 2 hrs relative to vehicle-treated control; format: functional
# Mus musculus [3] = assay: Antinociceptive activity in Swiss mouse assessed as inhibition of CFA-induced mechanical allodynia at 100 mg/kg, po measured over 4 hrs; format: functional, organism-based
# Mus musculus [4] = assay: Antinociceptive activity in po dosed Swiss mouse assessed as inhibition of CFA-induced mechanical allodynia after 2 hrs; format: functional; settings: read-out: ID50 (the source's name)
# Mus musculus [5] = assay: Antinociceptive activity in Swiss mouse assessed as inhibition of CFA-induced mechanical allodynia at 300 mg/kg, po after 2 hrs relative to vehicle-treated control; format: functional
# Mus musculus [6] = assay: Antinociceptive activity in Swiss mouse assessed as inhibition of CFA-induced mechanical allodynia at 100 mg/kg, po measured over 6 hrs; format: functional, organism-based
# Mus musculus [7] = assay: Toxicity in Swiss mouse assessed as effect on spontaneous locomotor activity at 100 mg/kg, po after 1 hr by open field test; format: organism-based; settings: in vivo
# Mus musculus [8] = assay: Toxicity in Swiss mouse assessed as effect on forced locomotor activity at 100 mg/kg, po after 1 hr by rotarod test; format: organism-based; settings: in vivo
structure (smiles),measurement,setting,value
FC(F)(F)c1nc(-c2ccccc2)nc2c1C1(CCCC1)Oc1ccccc1-2,inhibition,Mus musculus [1],Active
CC(C(=O)O)c1cccc(C(=O)c2ccccc2)c1 (stereo not given) [KETOPROFEN],inhibition in vivo at 100 mg/kg,"Mus musculus [1]; Mus musculus, Swiss, po",80%
same,inhibition in vivo at 100 mg/kg,Mus musculus [2],≤ 65%
same,inhibition,Mus musculus [3],Active
same,ED50,Mus musculus [4],169 mg/kg
same,Imax,Mus musculus [5],75%
FC(F)(F)c1nc(-c2ccccc2)nc2c1C1(CCCCCC1)Oc1ccccc1-2,inhibition,Mus musculus [1],Active
FC(F)(F)c1nc(-c2ccccc2)nc2c1C1(CCCCC1)Oc1ccccc1-2,inhibition,Mus musculus [1],Active
Nc1nc2c(c(C(F)(F)F)n1)C1(CCCCCC1)Oc1ccccc1-2,inhibition,Mus musculus [1],Active
FC(F)(F)c1nc(-n2cccc2)nc2c1C1(CCCC1)Oc1ccccc1-2,inhibition,Mus musculus [1],Active
Nc1nc2c(c(C(F)(F)F)n1)C1(CCCCC1)Oc1ccccc1-2,inhibition,Mus musculus [1],Active
FC(F)(F)c1nc(-n2cccc2)nc2c1C1(CCCCC1)Oc1ccccc1-2,Imax,Mus musculus [1],83%
same,inhibition in vivo at 100 mg/kg,Mus musculus [2],≤ 68%
same,inhibition,Mus musculus [6],Active
same,ED50,Mus musculus [4],422 mg/kg
same,Imax,Mus musculus [5],66%
same,Activity,Mus musculus [7],Non-Toxic
same,Activity,Mus musculus [8],Non-Toxic
FC(F)(F)c1nc(-n2cccc2)nc2c1C1(CCCCCC1)Oc1ccccc1-2,inhibition,Mus musculus [1],Active
Nc1nc2c(c(C(F)(F)F)n1)C1(CCCC1)Oc1ccccc1-2,inhibition,Mus musculus [1],Active
